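These data come from cells grown in 96-well plates and exposed to compound for 48 hours at five concentrations. GI50 is the concentration that inhibits growth by half. TGI: concentration producing complete growth inhibition.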

Among the test systems are A549 NSCLC; UACC-257 melanoma; SF-268 CNS; EKVX NSCLC; HL-60(TB) leukemia; HCC-2998 colon; DMS 273 small cell lung; MCF7 breast; XF 498 CNS; KM20L2 colon; A498 renal; SNB-78 CNS.
Assay in all cases: growth of human tumour cells (NCI), 48 h

As for `O=C1CNC(=O)N1`, the TGI in the assay on A549 NSCLC, in the assay on UACC-257 melanoma, in the assay on SF-268 CNS, in the assay on EKVX NSCLC, with HL-60(TB) leukemia and with HCC-2998 colon was > 1120 µM throughout. The TGI with DMS 273 small cell lung is > 1120 µM; in the assay on MCF7 breast, > 1120 µM; in the assay with XF 498 CNS, > 11.2 µM; with KM20L2 colon it was > 1120 µM; in the assay with A498 renal it was > 1120 µM; with SNB-78 CNS, > 1120 µM.

As for `COc1cc(CN(C)N2C(=O)c3cccc4cc([N+](=O)[O-])cc(c34)C2=O)cc(OC)c1OC`, the TGI in the assay with HL-60(TB) leukemia, with MCF7 breast and in the assay on A498 renal was > 100 µM each time.

On to `CC1(C)CCCC2(C)[C@@H]1CC[C@]13C[C@](C)(CC[C@@H]21)[C@@H]3CO` (some centres not stated), for which the TGI with A549 NSCLC, in the assay on UACC-257 melanoma, with SF-268 CNS, with HL-60(TB) leukemia, in the assay on HCC-2998 colon and with DMS 273 small cell lung was > 100 µM each time. For the same compound, the TGI in the assay on XF 498 CNS, with KM20L2 colon and in the assay on SNB-78 CNS was > 100 µM throughout.

For `Cc1ccc(NCCO)cc1`, the TGI with A549 NSCLC, in the assay with UACC-257 melanoma, in the assay on SF-268 CNS, in the assay on EKVX NSCLC, with HL-60(TB) leukemia and with XF 498 CNS was > 100 µM throughout. Further, the TGI in the assay with KM20L2 colon and in the assay on SNB-78 CNS was > 100 µM each time.

In the case of `O=C(NC/C=C/CO)c1ccccc1`, the TGI in the assay on A549 NSCLC, in the assay on UACC-257 melanoma, in the assay with SF-268 CNS, in the assay with EKVX NSCLC, with HL-60(TB) leukemia and in the assay with HCC-2998 colon was > 100 µM throughout. Further, the TGI in the assay with DMS 273 small cell lung, in the assay with MCF7 breast, with XF 498 CNS, in the assay with KM20L2 colon, in the assay with A498 renal and in the assay with SNB-78 CNS was > 100 µM throughout.

Turning to `Fc1cc(C2=Nn3c(nnc3-c3cc(F)c(Cl)cc3Cl)SC2)c(Cl)cc1Cl`, the GI50 in the assay on A549 NSCLC is 23.7 µM; in the assay on UACC-257 melanoma, 30.2 µM; in the assay on SF-268 CNS, 18.5 µM; in the assay on EKVX NSCLC, 24.6 µM; with HL-60(TB) leukemia it was 80.4 µM; in the assay on HCC-2998 colon, 31.6 µM. Further, the GI50 in the assay with MCF7 breast is 16.8 µM. In addition, the TGI with A549 NSCLC is 83.5 µM; in the assay on UACC-257 melanoma, > 100 µM; in the assay on SF-268 CNS, 61.3 µM; with EKVX NSCLC it was 90.3 µM; in the assay on HL-60(TB) leukemia, > 100 µM; in the assay with HCC-2998 colon it was > 100 µM. Besides, in the assay on MCF7 breast, the TGI was > 100 µM.

Regarding `COc1ccc(-c2nnc3c4ccccc4sn23)cc1`, the TGI is > 100 µM in the assay on A549 NSCLC; 73.8 µM in the assay on UACC-257 melanoma; > 100 µM in the assay with SF-268 CNS; > 100 µM in the assay on EKVX NSCLC; 45.4 µM in the assay with HL-60(TB) leukemia; > 100 µM with HCC-2998 colon. The TGI with DMS 273 small cell lung, in the assay with KM20L2 colon and in the assay with SNB-78 CNS was > 100 µM each time.

In the case of `O=c1n(Cc2ccccc2)c2ccccc2n1CC1CS1` (configuration not stated), the TGI in the assay on A549 NSCLC, in the assay with SF-268 CNS, in the assay with EKVX NSCLC, in the assay with HL-60(TB) leukemia, with HCC-2998 colon and with DMS 273 small cell lung was > 100 µM in each case. Also, the TGI in the assay on XF 498 CNS and with KM20L2 colon was > 100 µM in each case.

With `Cc1cc(C)c(S(=O)(=O)N(CCCCCCN)OCCCON(CCCCCCN)S(=O)(=O)c2c(C)cc(C)cc2C)c(C)c1`, the TGI in the assay on A549 NSCLC was 3.24 µM; with UACC-257 melanoma it was 3.27 µM; in the assay with SF-268 CNS, 3.42 µM; with EKVX NSCLC it was 3.19 µM; in the assay with HL-60(TB) leukemia it was > 100 µM; in the assay with MCF7 breast it was 3.66 µM. In the assay with A498 renal, this compound returned a TGI of 3.02 µM.

Regarding `COc1ccc2c(c1)C(=O)/C(=C/c1ccccc1)C2`, the TGI in the assay on MCF7 breast and with A498 renal was > 100 µM each time.

Consider `CC12CCC3C(CCC4(O)C=CCCC34C=O)C1(O)CC(O)C2c1ccc(=O)oc1` (configuration not stated), for which the TGI in the assay on A549 NSCLC was 0.0646 µM; with UACC-257 melanoma, 0.478 µM; in the assay with SF-268 CNS, 0.0754 µM; in the assay with EKVX NSCLC it was 0.087 µM; in the assay with HCC-2998 colon it was 0.252 µM; in the assay on DMS 273 small cell lung it was 0.0712 µM. Further, the TGI is 0.344 µM in the assay with MCF7 breast; 0.158 µM in the assay with XF 498 CNS; 0.267 µM in the assay with KM20L2 colon; 0.253 µM in the assay on A498 renal; 0.97 µM in the assay with SNB-78 CNS.

With `CCNc1nc2c(=O)n(C)c(=O)n(C)c2s1`, the TGI in the assay on A549 NSCLC, with UACC-257 melanoma, in the assay on SF-268 CNS, in the assay with EKVX NSCLC, in the assay with HL-60(TB) leukemia and in the assay with HCC-2998 colon was > 100 µM each time. The TGI with XF 498 CNS, with KM20L2 colon, in the assay with A498 renal and in the assay on SNB-78 CNS was > 100 µM in each case.

Turning to `ClCc1nnc2n1-c1ccc(Cl)cc1SC2`, the TGI in the assay with A549 NSCLC was 20.3 µM; in the assay on UACC-257 melanoma it was 9.8 µM; in the assay with SF-268 CNS, 9.55 µM; with EKVX NSCLC, > 51.9 µM; in the assay on HL-60(TB) leukemia, 3.51 µM; in the assay with HCC-2998 colon, 11 µM. The TGI was found to be 13 µM with DMS 273 small cell lung; 12.2 µM in the assay with MCF7 breast; 20 µM in the assay on XF 498 CNS; 15.9 µM with KM20L2 colon; 16.1 µM in the assay on A498 renal; 18.9 µM in the assay with SNB-78 CNS.

For the origin of these results see PubChem BioAssay (NCI).
